Reference: US10526316B2, “Quinoxaline and pyridopyrazine derivatives as PI3Kβ inhibitors” (Janssen Pharmaceutica NV, priority 2015, dated 2020)

Key:
[1] = system: Akt phosphorylated at Thr308 in PC-3 cells; experiment: Cellular assay: phosphorylation of Akt at Thr308 in PC-3 cells (MSD ELISA); type: cell-based; conditions: Homo sapiens, PC-3, 1 h, PC-3 cells, 60 min compound incubation, MSD ELISA; read-out: IC50 pAkt_Thr308
In short: (§1)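 Compound treatment of PC-3 cells lasted 60 min at 37° C (0.3% DMSO). Lysates were then applied to plates carrying capture antibodies for the relevant phospho-site, and bound Akt was detected with an electrochemiluminescent anti-total Akt antibody; IC50s derive from five-point curves.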

[2] = target: T1, PI3Kδ (Homo sapiens, UniProt O00329); experiment: Enzyme binding assay (KINOMEscan, DiscoveRx); conditions: PIK3Cδ_h
T1 construct: purchased DiscoveRx Corporation, San Diego (contract service, KINOMEscan)
T1 sequence (O00329 1-1044): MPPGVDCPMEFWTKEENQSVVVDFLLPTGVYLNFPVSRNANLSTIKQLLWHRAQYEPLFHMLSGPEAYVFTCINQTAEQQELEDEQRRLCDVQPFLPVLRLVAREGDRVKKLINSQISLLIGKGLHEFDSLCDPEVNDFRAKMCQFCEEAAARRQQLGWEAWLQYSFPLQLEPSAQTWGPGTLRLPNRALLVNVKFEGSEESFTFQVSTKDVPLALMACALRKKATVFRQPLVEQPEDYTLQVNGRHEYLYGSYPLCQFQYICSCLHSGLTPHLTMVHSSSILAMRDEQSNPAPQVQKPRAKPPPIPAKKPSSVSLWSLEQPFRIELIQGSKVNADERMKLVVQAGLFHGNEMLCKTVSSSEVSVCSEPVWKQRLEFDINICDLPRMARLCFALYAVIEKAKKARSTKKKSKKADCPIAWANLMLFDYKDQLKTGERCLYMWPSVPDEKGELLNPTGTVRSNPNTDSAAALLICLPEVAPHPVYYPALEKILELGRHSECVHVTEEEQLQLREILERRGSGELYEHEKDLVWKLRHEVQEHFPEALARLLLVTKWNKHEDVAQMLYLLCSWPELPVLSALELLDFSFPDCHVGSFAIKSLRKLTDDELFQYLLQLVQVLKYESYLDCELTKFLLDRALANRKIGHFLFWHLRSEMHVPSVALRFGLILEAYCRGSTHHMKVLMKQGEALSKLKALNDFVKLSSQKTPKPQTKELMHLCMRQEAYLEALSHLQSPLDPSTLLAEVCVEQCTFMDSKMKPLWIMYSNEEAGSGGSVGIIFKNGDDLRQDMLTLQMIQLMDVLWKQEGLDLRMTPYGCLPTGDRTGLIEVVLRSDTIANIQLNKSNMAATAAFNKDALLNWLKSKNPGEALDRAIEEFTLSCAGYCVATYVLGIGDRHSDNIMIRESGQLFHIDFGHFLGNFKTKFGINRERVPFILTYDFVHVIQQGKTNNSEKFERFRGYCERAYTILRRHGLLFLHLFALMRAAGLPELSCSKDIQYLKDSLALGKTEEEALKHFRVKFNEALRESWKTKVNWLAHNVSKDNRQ
In short: (§2)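 Affinity for each kinase was determined by KINOMEscan profiling.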

[3] = system: Akt phosphorylated at Ser473 in PC-3 cells; experiment: Cellular assay: phosphorylation of Akt at Ser473 in PC-3 cells (MSD ELISA); type: cell-based; conditions: Homo sapiens, PC-3, 1 h, PC-3 cells, 60 min compound incubation, MSD ELISA; read-out: IC50 pAkt_S473
In short: as §1

[4] = target: T2, PI3Kβ (Homo sapiens, UniProt P42338); experiment: Enzyme binding assay (KINOMEscan, DiscoveRx); conditions: PIK3Cβ_h, read-out: Kd PIK3Cβ_h
T2 construct: purchased DiscoveRx Corporation, San Diego (contract service, KINOMEscan)
T2 sequence (P42338 whole entry): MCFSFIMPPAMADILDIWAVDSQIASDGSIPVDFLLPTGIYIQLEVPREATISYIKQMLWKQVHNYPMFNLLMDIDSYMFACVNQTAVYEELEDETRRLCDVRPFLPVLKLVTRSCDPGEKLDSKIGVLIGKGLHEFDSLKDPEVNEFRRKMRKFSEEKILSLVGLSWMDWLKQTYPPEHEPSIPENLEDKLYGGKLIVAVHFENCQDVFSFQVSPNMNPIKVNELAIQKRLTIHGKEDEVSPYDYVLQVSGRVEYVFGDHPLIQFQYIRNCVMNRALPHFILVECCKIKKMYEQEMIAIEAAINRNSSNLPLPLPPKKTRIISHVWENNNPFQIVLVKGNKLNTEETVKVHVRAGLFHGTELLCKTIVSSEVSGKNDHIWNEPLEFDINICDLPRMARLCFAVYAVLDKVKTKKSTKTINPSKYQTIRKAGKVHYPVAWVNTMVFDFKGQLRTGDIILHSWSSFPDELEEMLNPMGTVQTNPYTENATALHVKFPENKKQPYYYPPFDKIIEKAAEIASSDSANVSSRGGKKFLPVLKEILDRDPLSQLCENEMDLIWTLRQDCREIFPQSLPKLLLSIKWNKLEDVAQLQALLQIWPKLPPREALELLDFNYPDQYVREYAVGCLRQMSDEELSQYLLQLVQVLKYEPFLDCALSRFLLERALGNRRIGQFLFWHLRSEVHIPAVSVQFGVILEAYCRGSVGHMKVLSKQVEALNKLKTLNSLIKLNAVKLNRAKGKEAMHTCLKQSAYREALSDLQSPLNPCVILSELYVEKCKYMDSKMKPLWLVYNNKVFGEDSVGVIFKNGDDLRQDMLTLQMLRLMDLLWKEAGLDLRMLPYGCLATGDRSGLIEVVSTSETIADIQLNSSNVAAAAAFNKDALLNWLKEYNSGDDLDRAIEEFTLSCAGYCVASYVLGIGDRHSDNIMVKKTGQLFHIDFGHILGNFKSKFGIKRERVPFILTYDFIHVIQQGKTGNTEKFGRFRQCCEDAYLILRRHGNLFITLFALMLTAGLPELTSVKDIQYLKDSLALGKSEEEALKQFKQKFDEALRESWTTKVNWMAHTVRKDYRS
In short: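 Values are Kd in nM, the binding constant of each inhibitor for the kinase, obtained from a KINOMEscan enzyme binding assay.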

[5] = target: T3, kinase enzymes (Homo sapiens, UniProt P42345); experiment: Enzyme binding assay (KINOMEscan, DiscoveRx), further kinases of Table A; conditions: MTOR_h
T3 construct: purchased DiscoveRx Corporation, San Diego (contract service, KINOMEscan)
In short: as §2

[6] = target: T4, kinase enzymes (Homo sapiens, UniProt P48736); experiment: as above; conditions: PIK3Cγ_h
T4 construct: purchased DiscoveRx Corporation, San Diego (contract service, KINOMEscan)
T4 sequence (P48736 whole entry): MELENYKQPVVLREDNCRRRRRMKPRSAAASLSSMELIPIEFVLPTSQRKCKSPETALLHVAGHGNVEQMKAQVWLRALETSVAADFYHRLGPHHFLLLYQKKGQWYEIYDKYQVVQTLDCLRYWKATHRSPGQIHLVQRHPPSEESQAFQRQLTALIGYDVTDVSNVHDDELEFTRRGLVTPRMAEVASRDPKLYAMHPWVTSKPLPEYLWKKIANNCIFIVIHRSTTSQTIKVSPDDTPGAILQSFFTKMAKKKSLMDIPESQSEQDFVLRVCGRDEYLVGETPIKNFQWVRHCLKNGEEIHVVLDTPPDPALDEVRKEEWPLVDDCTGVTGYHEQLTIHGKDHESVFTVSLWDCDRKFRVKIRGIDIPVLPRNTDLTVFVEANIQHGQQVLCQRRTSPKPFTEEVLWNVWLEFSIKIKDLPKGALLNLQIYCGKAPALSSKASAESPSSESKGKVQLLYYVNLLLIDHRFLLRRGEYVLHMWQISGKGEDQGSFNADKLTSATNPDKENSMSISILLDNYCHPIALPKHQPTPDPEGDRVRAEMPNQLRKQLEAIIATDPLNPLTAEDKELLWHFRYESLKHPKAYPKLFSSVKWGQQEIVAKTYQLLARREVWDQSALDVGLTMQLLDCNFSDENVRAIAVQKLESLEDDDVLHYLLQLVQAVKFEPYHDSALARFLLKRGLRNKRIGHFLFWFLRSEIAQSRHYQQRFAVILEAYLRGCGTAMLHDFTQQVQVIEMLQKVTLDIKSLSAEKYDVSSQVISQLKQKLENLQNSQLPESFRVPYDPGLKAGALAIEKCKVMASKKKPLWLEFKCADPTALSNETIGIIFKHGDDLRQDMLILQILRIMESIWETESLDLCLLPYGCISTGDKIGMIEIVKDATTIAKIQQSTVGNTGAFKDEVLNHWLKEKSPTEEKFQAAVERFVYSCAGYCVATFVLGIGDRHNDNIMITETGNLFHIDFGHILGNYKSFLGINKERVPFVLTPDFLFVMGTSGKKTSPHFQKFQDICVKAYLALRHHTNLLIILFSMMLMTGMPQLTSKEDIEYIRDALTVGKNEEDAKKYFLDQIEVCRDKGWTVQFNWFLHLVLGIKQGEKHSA
In short: as §2

[7] = target: T5, kinase enzymes (Homo sapiens, UniProt P42336); experiment: as above; conditions: PIK3Cα_h
T5 construct: purchased DiscoveRx Corporation, San Diego (contract service, KINOMEscan)
T5 sequence (P42336 whole entry): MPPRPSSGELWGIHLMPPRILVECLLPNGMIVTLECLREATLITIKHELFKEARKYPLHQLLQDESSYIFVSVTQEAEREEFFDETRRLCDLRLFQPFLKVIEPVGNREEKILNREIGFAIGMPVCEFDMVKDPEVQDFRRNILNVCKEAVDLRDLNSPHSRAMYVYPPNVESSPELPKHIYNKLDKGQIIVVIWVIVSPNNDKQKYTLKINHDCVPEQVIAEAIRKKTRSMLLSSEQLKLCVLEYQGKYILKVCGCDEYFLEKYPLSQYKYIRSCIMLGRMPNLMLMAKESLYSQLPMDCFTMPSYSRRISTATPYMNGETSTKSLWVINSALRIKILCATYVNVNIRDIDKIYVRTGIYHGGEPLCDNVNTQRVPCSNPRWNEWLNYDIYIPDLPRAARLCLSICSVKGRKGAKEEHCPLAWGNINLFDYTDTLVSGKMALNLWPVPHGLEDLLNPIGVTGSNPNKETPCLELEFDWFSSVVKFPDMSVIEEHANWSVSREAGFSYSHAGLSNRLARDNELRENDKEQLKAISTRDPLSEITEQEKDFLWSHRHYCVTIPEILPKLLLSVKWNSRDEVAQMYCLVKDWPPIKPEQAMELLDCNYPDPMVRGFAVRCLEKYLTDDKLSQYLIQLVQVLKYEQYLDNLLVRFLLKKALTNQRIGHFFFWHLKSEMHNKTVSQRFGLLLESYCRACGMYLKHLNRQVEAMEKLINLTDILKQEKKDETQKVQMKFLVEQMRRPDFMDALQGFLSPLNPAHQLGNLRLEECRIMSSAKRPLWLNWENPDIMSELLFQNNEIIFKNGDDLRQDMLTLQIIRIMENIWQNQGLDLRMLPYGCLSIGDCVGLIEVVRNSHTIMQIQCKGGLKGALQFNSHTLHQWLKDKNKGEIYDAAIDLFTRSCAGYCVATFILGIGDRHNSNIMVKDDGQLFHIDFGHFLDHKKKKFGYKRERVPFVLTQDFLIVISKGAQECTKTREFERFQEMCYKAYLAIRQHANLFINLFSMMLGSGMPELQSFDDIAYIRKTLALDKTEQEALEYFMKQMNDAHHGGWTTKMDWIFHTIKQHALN
In short: as §2

COc1cccc(N2CCCC2c2cc(C(=O)N(C)C)cc3ncc(N4CCOCC4)nc23)c1 (stereo not drawn) [Compound 41]
IC50 [1]: 22 nM
Kd [2]: 141 nM
melting point: 80 °C
IC50 [3]: 31 nM
Kd [4]: 1 nM
Kd [5]: > 30200 nM
Kd [6]: 1380 nM
Kd [7]: 389 nM

CN(C)C(=O)c1cc(C2CCCN2c2ccc(F)cc2)c2nc(N3CCOCC3)cnc2c1 (stereo not drawn) [Compound 42]
IC50 [1]: 11 nM
Kd [2]: 56 nM
melting point: 80 °C
IC50 [3]: 16 nM
Kd [4]: 1 nM
Kd [5]: > 30200 nM
Kd [6]: 1480 nM
Kd [7]: 331 nM

CN(C)C(=O)c1cc(C2CCCN2c2cc(F)cc(C=O)c2)c2nc(N3CCOCC3)cnc2c1 (stereo not drawn) [Compound 44]
IC50 [1]: 66 nM
Kd [2]: 174 nM
melting point: 80 °C
IC50 [3]: 74 nM
Kd [4]: 1 nM
Kd [5]: 23400 nM
Kd [6]: 631 nM
Kd [7]: 234 nM

CN(C)C(=O)c1cc(C2CCCN2c2cc(F)cc(CO)c2)c2nc(N3CCOCC3)cnc2c1 (stereo not drawn) [Compound 45]
IC50 [1]: 72 nM
Kd [2]: 126 nM
melting point: 80 °C
IC50 [3]: 166 nM
Kd [4]: 3 nM
Kd [5]: 31600 nM
Kd [6]: 2090 nM
Kd [7]: 170 nM

CC(C)NCc1cc(F)cc(N2CCCC2c2cc(C(=O)N(C)C)cc3ncc(N4CCOCC4)nc23)c1 (stereo not drawn) [Compound 49]
IC50 [1]: 468 nM
Kd [2]: 933 nM
melting point: 80 °C
IC50 [3]: > 513 nM
Kd [4]: 16 nM
Kd [5]: > 30200 nM
Kd [6]: 7590 nM
Kd [7]: 2190 nM

CN(CCO)C(=O)c1cc(C2CCCN2c2cc(F)cc(F)c2)c2nc(N3CCOCC3)cnc2c1 (stereo not drawn) [Compound 50]
IC50 [1]: 1 nM
Kd [2]: 8 nM
melting point: 80 °C
IC50 [3]: 1 nM
Kd [4]: 0.2 nM
Kd [5]: 8910 nM
Kd [6]: 87 nM
Kd [7]: 11 nM

CON(C)C(=O)c1cc(C2CCCN2c2cc(F)cc(F)c2)c2nc(N3CCOCC3)cnc2c1 (stereo not drawn) [Compound 51]
IC50 [1]: 3 nM
Kd [2]: 39 nM
melting point: 80 °C
IC50 [3]: 3 nM
Kd [4]: 1 nM
Kd [5]: > 30200 nM
Kd [6]: 339 nM
Kd [7]: 55 nM

CN(C)C(=O)c1cc(C2CCCN2c2cccc(C(F)(F)F)c2)c2nc(N3CCOCC3)cnc2c1 (stereo not drawn) [Compound 52]
IC50 [1]: 240 nM
Kd [2]: 4900 nM
melting point: 80 °C
IC50 [3]: > 513 nM
Kd [4]: 38 nM
Kd [5]: > 30200 nM
Kd [6]: 13800 nM
Kd [7]: 6170 nM

CN(C)C(=O)c1cc(C2CCCN2c2ccc(C#N)c(F)c2)c2nc(N3CCOCC3)cnc2c1 (stereo not drawn) [Compound 54]
IC50 [1]: > 513 nM
Kd [2]: 7080 nM
melting point: 80 °C
IC50 [3]: > 513 nM
Kd [4]: 115 nM
Kd [5]: 26900 nM
Kd [6]: > 30200 nM
Kd [7]: 16200 nM

Cc1c(N2CCCC2c2cc(C(=O)N(C)C)cc3ncc(N4CCOCC4)nc23)cccc1C(F)(F)F (stereo not drawn) [Compound 55]
IC50 [1]: > 513 nM
Kd [2]: > 30200 nM
melting point: 80 °C
IC50 [3]: > 513 nM
Kd [4]: 3980 nM
Kd [5]: > 30200 nM
Kd [6]: > 30200 nM
Kd [7]: > 30200 nM

O=C(O)c1cc(C2CCCN2c2cc(F)cc(F)c2)c2nc(N3CCOCC3)cnc2c1 (stereo not drawn) [Compound 62]
IC50 [1]: 32 nM
Kd [2]: 51 nM
melting point: > 260 °C
IC50 [3]: 52 nM
Kd [4]: 1 nM
Kd [5]: 2040 nM
Kd [6]: 234 nM
Kd [7]: 25 nM

O=C(c1cc(C2CCCN2c2cc(F)cc(F)c2)c2nc(N3CCOCC3)cnc2c1)N1CC(CO)C1 (stereo not drawn) [Compound 63]
IC50 [1]: 4 nM
Kd [2]: 27 nM
melting point: 100 °C
IC50 [3]: 9 nM
Kd [4]: 0.5 nM
Kd [5]: 8130 nM
Kd [6]: 891 nM
Kd [7]: 79 nM

O=C(c1cc(C2CCCN2c2cc(F)cc(F)c2)c2nc(N3CCOCC3)cnc2c1)N1CC(O)C1 (stereo not drawn) [Compound 65]
IC50 [1]: 2 nM
Kd [2]: 17 nM
melting point: 80 °C
IC50 [3]: 6 nM
Kd [4]: 1 nM
Kd [5]: 10700 nM
Kd [6]: 200 nM
Kd [7]: 38 nM

O=C(NCCCO)c1cc(C2CCCN2c2cc(F)cc(F)c2)c2nc(N3CCOCC3)cnc2c1 (stereo not drawn) [Compound 66]
IC50 [1]: 6 nM
Kd [2]: 79 nM
melting point: 80 °C
IC50 [3]: 13 nM
Kd [4]: 2 nM
Kd [5]: 17000 nM
Kd [6]: 676 nM
Kd [7]: 65 nM

CC(Oc1cccc(F)c1)c1cc(C(=O)N(C)C)cc2ncc(N3CCOCC3)nc12 (stereo not drawn) [Compound 68]
IC50 [1]: 148 nM
Kd [2]: 589 nM
melting point: 49 °C
IC50 [3]: 257 nM
Kd [4]: 3 nM
Kd [5]: 22400 nM
Kd [6]: 15100 nM
Kd [7]: 3160 nM

CC(C)N1CCN(C(=O)c2cc(C3CCCN3c3cc(F)cc(F)c3)c3nc(N4CCOCC4)cnc3c2)CC1 (stereo not drawn) [Compound 69]
IC50 [1]: ~32 nM
Kd [2]: 195 nM
melting point: 80 °C
IC50 [3]: 117 nM
Kd [4]: 3 nM
Kd [5]: > 30200 nM
Kd [6]: 3090 nM
Kd [7]: 891 nM

O=C(NCCO)c1cc(C2CCCN2c2cc(F)cc(F)c2)c2nc(N3CCOCC3)cnc2c1 (stereo not drawn) [Compound 71]
IC50 [1]: 13 nM
Kd [2]: 138 nM
melting point: 80 °C
IC50 [3]: ~15 nM
Kd [4]: 1 nM
Kd [5]: 22400 nM
Kd [6]: 794 nM
Kd [7]: 251 nM

CNCCNC(=O)c1cc(C2CCCN2c2cc(F)cc(F)c2)c2nc(N3CCOCC3)cnc2c1 (stereo not drawn) [Compound 72]
IC50 [1]: 1 nM
Kd [2]: 17 nM
melting point: 80 °C
IC50 [3]: 2 nM
Kd [4]: 0.2 nM
Kd [5]: 20400 nM
Kd [6]: 204 nM
Kd [7]: 56 nM
